The source of these data is ChEMBL document CHEMBL3351609, “Pyrrolopyridines-quinazolines Inhibitors of PKR-Like ER Kinase” (ACS Med Chem Lett, 2015).

Assay [1] has as its target T1, Eukaryotic translation initiation factor 2-alpha kinase 3 (Homo sapiens, UniProt Q9NZJ5).
T1 sequence (Q9NZJ5 whole entry): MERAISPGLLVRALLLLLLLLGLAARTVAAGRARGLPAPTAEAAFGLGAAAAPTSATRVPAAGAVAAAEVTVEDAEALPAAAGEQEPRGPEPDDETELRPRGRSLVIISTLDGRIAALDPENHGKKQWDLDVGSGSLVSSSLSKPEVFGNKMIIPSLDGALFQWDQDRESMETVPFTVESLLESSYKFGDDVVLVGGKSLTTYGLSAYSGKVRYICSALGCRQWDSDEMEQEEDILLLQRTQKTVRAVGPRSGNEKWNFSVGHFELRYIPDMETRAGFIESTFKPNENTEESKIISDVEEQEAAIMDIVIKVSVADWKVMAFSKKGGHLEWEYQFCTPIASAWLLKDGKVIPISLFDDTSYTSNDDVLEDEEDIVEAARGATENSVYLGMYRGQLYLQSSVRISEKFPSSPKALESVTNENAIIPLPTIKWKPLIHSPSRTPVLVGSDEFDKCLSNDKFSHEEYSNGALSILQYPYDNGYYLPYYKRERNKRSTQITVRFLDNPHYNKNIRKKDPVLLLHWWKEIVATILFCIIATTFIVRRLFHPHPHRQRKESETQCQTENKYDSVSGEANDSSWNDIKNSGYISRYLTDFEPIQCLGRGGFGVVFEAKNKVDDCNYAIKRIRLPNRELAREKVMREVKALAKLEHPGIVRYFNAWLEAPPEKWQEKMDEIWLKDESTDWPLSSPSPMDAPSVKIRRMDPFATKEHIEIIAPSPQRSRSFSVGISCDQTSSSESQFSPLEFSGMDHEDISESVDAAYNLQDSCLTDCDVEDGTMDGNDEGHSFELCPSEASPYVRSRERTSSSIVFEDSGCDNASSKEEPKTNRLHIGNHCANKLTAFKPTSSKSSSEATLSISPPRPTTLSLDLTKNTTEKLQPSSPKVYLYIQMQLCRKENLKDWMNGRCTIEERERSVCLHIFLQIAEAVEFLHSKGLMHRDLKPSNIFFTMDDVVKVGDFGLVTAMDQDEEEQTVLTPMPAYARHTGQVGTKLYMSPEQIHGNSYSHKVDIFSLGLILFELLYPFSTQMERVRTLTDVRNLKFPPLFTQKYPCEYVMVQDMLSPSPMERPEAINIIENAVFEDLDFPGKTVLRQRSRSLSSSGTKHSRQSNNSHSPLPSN
As to the kind of experiment: Inhibition of PERK (unknown origin) expressed in HEK293 cells assessed as inhibition of phosphorylation of GFP-eIF2 alpha by cell-based TR-FRET assay. A general note: Time-resolved FRET reads energy transfer from a long-lived donor to a nearby acceptor.

In assay [2] the target is T1, Eukaryotic translation initiation factor 2-alpha kinase 3. The experiment in a line: Inhibition of recombinant GST-tagged PERK (unknown origin) by LanthaScreen assay.

For orientation: IC50 means the midpoint of a concentration-inhibition curve. As for `COc1cc2ncnc(Nc3ccc4c(c3)CCN4C(=O)Cc3c(C)[nH]c4cc(F)ccc34)c2cc1OC`, the figures for the IC50 in assay [1] and in assay [2] were 25.1 nM and 0.631 nM, respectively.

Take `COc1cc2ncnc(Nc3ccc4c(c3)CCN4C(=O)Cc3cc(F)ccc3F)c2cc1OC`: the IC50 in assay [1] was 50.1 nM; in assay [2], 0.398 nM. Consider `COc1cc2ncnc(Nc3ccc4c(c3)CCN4C(=O)Cn3ccc4ccccc43)c2cc1OC`, for which the IC50 in assay [1] was 316 nM. As for `COc1cc2ncnc(Nc3ccc4c(c3)CCN4C(=O)Cc3c[nH]c4ccccc34)c2cc1OC`, the IC50 is 501 nM in assay [1] and 5.01 nM in assay [2].

Consider `COc1cc2ncnc(Nc3ccc4c(c3)CCN4C(=O)Cc3coc4ccccc34)c2cc1OC`, for which the IC50 in assay [1] is above 31600 nM.
